In patent publication EP1157985A1 (G.D. SEARLE & CO., priority 1996, dated 1997) one finds IC50 data, which are given here for 16 compounds.

Test [1] addresses T1, Human fibrinogen receptor (αIIbβ3) (Homo sapiens, UniProt P05106+P08514).
T1 construct: Human fibrinogen receptor (αIIbβ3) was purified from outdated platelets; from tissue; host or cells: outdated (human) platelets
Briefly: Purified IIb/IIIa receptor assay (solid phase receptor assay, competition with biotinylated vitronectin). The following applies: purified receptor from outdated platelets; 1 nM biotinylated vitronectin; highest concentration tested 1.0 x 10^-4 M. The test is classed as binding. From the text: PURIFIED IIb/IIIa RECEPTOR ASSAY
Human fibrinogen receptor (αIIbβ3) was purified from outdated platelets. (Pytela, R., Pierschbacher, M.D., Argraves, S., Suzuki, S., and Rouslahti, E. "Arginine-Glycine-Aspartic acid adhesion receptors", Methods in Enzymology 144(1987):475-489.) Human vitronectin was purified from fresh frozen plasma as described in Yatohgo, T., Izumi, M., Kashiwagi, H., and Hayashi, M., "Novel purification of vitronectin from human plasma by heparin affinity chromatography," Cell Structure and Function 13(1988):281-292. Biotinylated human vitronectin was prepared by coupling NHS-biotin from Pierce Chemical Company (Rockford, IL) to purified vitronectin as previously described. (Charo, I.F., Nannizzi, L., Phillips, D.R., Hsu, M.A., Scarborough, R.M., "Inhibition of fibrinogen binding to GP IIb/IIIa by a GP IIIa peptide", J. Biol. Chem. 266(3)(1991): 1415-1421.) Assay buffer, OPD substrate tablets, and RIA grade BSA were obtained from Sigma (St. Louis, MO). Anti-biotin antibody was obtained from Calbiochem (La Jolla, CA). Linbro microtiter plates were obtained from Flow Labs (McLean, VA). ADP reagent was obtained from Sigma (St. Louis, MO).
This assay is essentially the same reported in Niiya, K., Hodson, E., Bader, R., Byers-Ward, V. Koziol, J.A., Plow, E.F. and Ruggeri, Z.M., "Increased surface expression of the membrane glycoprotein IIb/IIIa complex induced by platelet activation: Relationships to the binding of fibrinogen and platelet aggregation", Blood 70(1987):475-483. The purified human fibrinogen receptor (αIIbβ3) was diluted from stock solutions to 1.0 µg/mL in Tris-buffered saline containing 1.0 mM Ca^++, Mg^++, and Mn^++, pH 7.4 (TBS^+++). The diluted receptor was immediately transferred to Linbro microtiter plates at 100 µL/well (100 ng receptor/well). The plates were sealed and incubated overnight at 4°C to allow the receptor to bind to the wells. All remaining steps were at room temperature. The assay plates were emptied and 200 µL of 1% RIA grade BSA in TBS^+++ (TBS^+++/BSA) were added to block exposed plastic surfaces. Following a 2 hour incubation, the assay plates were washed with TBS^+++ using a 96 well plate washer. Logarithmic serial dilution of the test compound and controls were made starting at a stock concentration of 2 mM and using 2 nM biotinylated vitronectin in TBS^+++/BSA as the diluent. This premixing of labeled ligand with test (or control) ligand, and subsequent transfer of 50 µL aliquots to the assay plate was carried out with a CETUS Propette robot; the final concentration of the labeled ligand was 1 nM and the highest concentration of test compound was 1.0 x 10^-4 M. The competition occurred for two hours after which all wells were washed with a plate washer as before. Affinity purified horseradish peroxidase labeled goat anti-biotin antibody was diluted 1:3000 in TBS^+++/BSA and 125 µL were added to each well. After 30 minutes, the plates were washed and incubated with […] substrate in 100 mM/L citrate buffer, pH 5.0. The plate was read with a microtiter plate reader at a wavelength of 450 nm and when the maximum-binding control wells reached an absorbance of about 1.0, the final A450 were recorded for analysis. The data were analyzed using a macro written for use with the EXCEL™ spreadsheet program. The mean, standard deviation, and %CV were determined for duplicate concentrations. The mean A450 values were normalized to the mean of four maximum-binding controls (no competitor added)(B-MAX). The normalized values were subjected to a four parameter curve fit algorithm, [Robard et al., Int. […]

Test [2] has as its target T2, Human vitronectin receptor (αvβ3) (Homo sapiens, UniProt P05106+P06756).
T2 construct: Human vitronectin receptor (αvβ3) was purified from human placenta; from tissue; host or cells: human placenta
In words: Vitronectin adhesion assay (solid phase receptor assay, competition with biotinylated vitronectin). In kind it is binding. On the procedure:
VITRONECTIN ADHESION ASSAY
Human vitronectin receptor (αvβ3) was purified from human placenta as previously described [Pytela et al., Methods in Enzymology, 144:475-489 (1987)]. Human vitronectin was purified from fresh frozen plasma as previously described [Yatohgo et al., Cell Structure and Function, 13:281-292 (1988)]. Biotinylated human vitronectin was prepared by coupling NHS-biotin from Pierce Chemical Company (Rockford, IL) to purified vitronectin as previously described [Charo et al., J. Biol. Chem., 266(3):1415-1421 (1991)]. Assay buffer, OPD substrate tablets, and RIA grade BSA were obtained from Sigma (St. Louis, MO). Anti-biotin antibody was obtained from Calbiochem (La Jolla, CA). Linbro microtiter plates were obtained from Flow Labs (McLean, VA). ADP reagent was obtained from Sigma (St. Louis, MO).
This assay was essentially the same as previously reported [Niiya et al., Blood, 70:475-483 (1987)]. The purified human vitronectin receptor (αvβ3) was diluted from stock solutions to 1.0 µg/mL in Tris-buffered saline containing 1.0 mM Ca^++, Mg^++, and Mn^++, pH 7.4 (TBS^+++). The diluted receptor was immediately transferred to Linbro microtiter plates at 100 µL/well (100 ng receptor/well). The plates were sealed and incubated overnight at 4°C to allow the receptor to bind to the wells. All remaining steps were at room temperature. The assay plates were emptied and 200 µL of 1% RIA grade BSA in TBS^+++ (TBS^+++/BSA) were added to block exposed plastic surfaces. Following a 2 hour incubation, the assay plates were washed with TBS^+++ using a 96 well plate washer. Logarithmic serial dilution of the test compound and controls were made starting at a stock concentration of 2 mM and using 2 nM biotinylated vitronectin in TBS^+++/BSA as the diluent. This premixing of labeled ligand with test (or control) ligand, and subsequent transfer of 50 µL aliquots to the assay plate was carried out with a CETUS Propette robot; the final concentration of the labeled ligand was 1 nM and the highest concentration of test compound was 1.0 x 10^-4 M. The competition occurred for two hours after which all wells were washed with a plate washer as before. Affinity purified horseradish peroxidase labeled goat anti-biotin antibody was diluted 1:3000 in TBS^+++/BSA and 125 µL were added to each well. After 30 minutes, the plates were washed and incubated with OPD/H2O2 substrate in 100 mM/L Citrate buffer, pH 5.0. The plate was read with a microtiter plate reader at a wavelength of 450 nm and when the maximum-binding control wells reached an absorbance of about 1.0, the final A450 were recorded for analysis. The data were analyzed using a macro written for use with the EXCEL™ spreadsheet program. The mean, standard deviation, and %CV were determined for duplicate concentrations. The mean A450 values were normalized to the mean of four maximum-binding controls (no competitor added)(B-MAX). The normalized values were subjected to a four parameter curve fit algorithm [Rodbard et al., Int.

The mark [3] stands for this setting: purified receptor from human placenta; 1 nM biotinylated vitronectin; highest concentration tested 1.0 x 10^-4 M; read-out: AvB3 IC50.

Where a name gives a salt, the structure may show the parent alone. Read-outs that look alike come from different tables or passages of the source.

`NC(N)=Nc1cccc(C(=O)Nc2ccc(CCC(=O)O)c(C(=O)O)c2)c1` [Example 101A, 4-[[[3-[(aminoiminomethyl)amino]phenyl]carbonyl]-amino]-2-carboxybenzenepropanoic acid, bis(trifluoroacetate) salt]: the IC50 (in general, the concentration that gives 50% inhibition) in test [1] worked out at 0.057 µM; in test [2] (setting [3]), 0.009 µM.
In the case of `CC(C)OC(=O)NC(Cc1ccc(NC(=O)c2cccc(NC(=N)N)c2)c(Cl)c1)C(=O)O` (centres unmarked) [Example 127, trifluoroacetate salt], the IC50 in test [1] was 0.022 µM; in test [2] (read-out: AvB3 IC50; purified receptor from human placenta; 1 nM biotinylated vitronectin; highest concentration tested 1.0 x 10^-4 M) it was 0.0006 µM.
On to `COc1cc(NC(=O)c2cccc(NC3=NCCCN3)c2)ccc1C[C@H](NC(=O)OC(C)C)C(=O)O` [Example 114, 2-methoxy-N-[(1-methylethoxy)carbonyl]-4-[[[3-[(1,4,5,6-tetrahydropyrimidin-2-yl)amino]-phenyl]-carbonyl]amino]phenylalanine, trifluoroacetate salt], for which the values for the IC50 in test [1] and in test [2] (setting [3]) were 1 µM and 0.0002 µM, respectively.
The matching figures for `N=C(N)Nc1cccc(C(=O)Nc2ccc(CC(NS(=O)(=O)c3ccccc3)C(=O)O)cc2)c1` (centres unmarked) [Example 51, trifluoroacetate salt]: 0.00071 µM and 0.00063 µM.
On to `N=C(N)Nc1cccc(C(=O)NCc2ccc(CCC(=O)O)cc2)c1` [Example 29, 4-[[[[3-[(aminoiminomethyl)amino]phenyl]carbonyl]amino]methyl]benzenepropanoic acid, trifluoroacetate salt], for which the IC50 was found to be 1.28 µM in test [1] and 4 µM in test [2] (setting [3]).
Regarding `O=C(Nc1ccc(C[C@H](NS(=O)(=O)c2ccccc2)C(=O)O)cc1)c1cccc(NC2=NCCCN2)c1` [Example 111, N-(phenylsulfonyl)-4-[[[3-[(1,4,5,6-tetrahydro-pyrimidin-2-yl)amino]phenyl]carbonyl]amino]-phenylalanine, trifluoroacetate salt], the IC50 in test [1] was determined as 0.006 µM; in test [2] (setting [3]) it was 0.0001 µM.
`CN(C(=O)c1cccc(NC(=N)N)c1)c1ccc(CCC(=O)O)cc1` [Example 61, 4-[[[3-[(aminoiminomethyl)amino]phenyl]carbonyl]methylamino]benzenepropanoic acid, monohydrate trifluoroacetate salt]: the results for the half-inhibitory concentration (IC50) in test [1] and in test [2] (setting [3]) were 0.666 µM and 0.47 µM, respectively.
On to `CN(C)c1cc(NC(=O)c2cccc(NC(=N)N)c2)ccc1CCC(=O)O` [Example 117, 4-[[[3-[(aminoiminomethyl)amino]phenyl]carbonyl]-amino]-2-(dimethylamino)benzenepropanoic acid, bis(trifluoroacetate) salt], for which the IC50 in test [1] amounted to 0.452 µM; in test [2] (setting [3]), 0.129 µM.
Take `CCCCS(=O)(=O)N[C@@H](Cc1ccc(NC(=O)c2cc(NC3=NCCCCC3)cc(C(F)(F)F)c2)cc1)C(=O)O` [Example 6, N-(butylsulfonyl)-4-[[[3-[(3,4,5,6-tetrahydro-2H-azepin-7-yl)-amino]-5-(trifluoromethyl)phenyl]carbonyl]-amino]phenylalanine, trifluoroacetate salt]: the IC50 in test [1] was determined as 0.0495 µM; in test [2] (setting [3]), 0.00051 µM.
The matching figures for `CCOC(=O)CCc1ccc(N(C)C(=O)c2cccc(NC(=N)N)c2)cc1` [Example 60, ethyl 4-[[[3-[(aminoiminomethyl)amino]phenyl]carbonyl]methylamino]benzenepropanoate, trifluoroacetate salt]: 3.81 µM and 3.37 µM.
The matching figures for `COC(=O)c1cc(NC(=O)c2cccc(NC(=N)N)c2)ccc1CCC(=O)O` [Example 101B, 4-[[[3-[(aminoiminomethyl)amino]phenyl]carbonyl]-amino]-2-methoxycarbonyl)benzenepropanoic acid, bis(trifluoroacetate) salt]: 0.286 µM and 0.035 µM.
The matching figures for `N=C(N)Nc1cccc(C(=O)Nc2ccc(SCC(=O)O)cc2)c1` [Example 82, [[4-[[[3-[(aminoiminomethyl)amino]phenyl]carbonyl]amino]phenyl]thio]acetic acid, trifluoroacetate]: 0.332 µM and 0.264 µM.
Consider `NC(=O)Nc1cccc(C(=O)Nc2ccc(CCC(=O)O)cc2)c1` [Example 24, 4-[[[3-[(aminocarbonyl)amino]phenyl]carbonyl]amino]benzenepropanoic acid], for which the IC50 in test [1] was determined as 4.53 µM; in test [2] (setting [3]), 1.22 µM.
With `CC(C)(C)OC(=O)N[C@@H](Cc1ccc(NC(=O)c2cccc(NC(=N)N)c2)cc1)C(=O)O` [Example 56, trifluoroacetate salt], the half-maximal inhibitory concentration (IC50) came out at 0.00635 µM in test [1] and 0.00043 µM in test [2] (setting [3]).
The matching figures for `CCOC(=O)NC(Cc1ccc(NC(=O)c2cccc(NC(=N)N)c2)cc1)C(=O)O` (centres unmarked) [Example 49, trifluoroacetate salt]: 0.0314 µM and 0.0011 µM.
For `COc1cc(NC(=O)c2cccc(NC3=NCCCN3)c2)ccc1OCC(=O)O` [Example 119, [2-methoxy-4-[[[3-[(1,4,5,6-tetrahydropyrimidin-2-yl]-amino]phenyl]carbonyl]amino]phenoxy]acetic acid, trifluoroacetate salt] the same measures were 0.772 µM and 0.0004 µM.
